SMILES strings stand for the structures. Where two headings read alike, the source gives them in different places.

Data set [1] relates to recombinant human PDE4. To be noted: background, reported value; read-out: reported IC50 with respect to recombinant human PDE4; cited from earlier work.
For data set [2], the system named is TNFα release from human peripheral blood lymphocytes. Description: Lipopolysaccharide-stimulated TNFα release from human peripheral blood lymphocytes. The class given is cell-based. On the procedure:
The compounds of structural formulae (I) and (II) were tested for an ability to reduce TNFα secretions in human peripheral blood lymphocytes. The ability of a compound to reduce TNFα secretion is related to the EC50 value for the compound (i.e., the effective concentration of the compound capable of inhibiting 50% of the total TNFα).
To assess the ability of a compound to reduce TNFα secretion in human peripheral blood lymphocytes (PBL), the following tests were performed.
Heparinized blood (approximately 30 mL) drawn from human volunteers was mixed 1:1 with Dulbecco's modified phosphate-buffered saline. This mixture was mixed 1:1 with HISTOPAQUE® and centrifuged at 1,500 rpm at room temperature without braking in the swinging bucket of a Beckman model TJ6 centrifuge. Erythrocytes were centrifuged to the bottom of the tubes, and serum remained at the surface of the tubes. A layer containing lymphocytes sedimented between the serum and HISTOPAQUE® layers, and was removed by aspiration to a fresh tube. The cells were quantified and adjusted to […] and a 100 μL aliquot is placed into the wells of a 96 well plate. Test compounds and RPMI media (Gibco/BRL Life Sciences) are added to each of the wells 15 minutes prior to addition of bacterial LPS ([…]). The mixture was allowed to incubate for 20 hours at 37° C. in a humidified chamber. The cells then were separated by centrifuging at 800 rpm for 5 minutes at room temperature. An aliquot of 180 μL of supernatant was transferred to a new plate for determination of TNFα concentration. TNFα protein in the cell supernatant fluids was measured using a commercially available enzyme-linked immunosorbent assay (ELISA) (CYTOSCREEN® Immunoassay Kit from Biosource International).
The cell-based assay provided the following results for various compounds of the present invention. The EC50. values (i.e., effective concentration of the compound capable of inhibiting 50% of the total TNFα) illustrate the ability of the present compounds to inhibit LPS-stimulated TNFα release from human PBL.
The cell-based assay provided the following results for various pyrazole compounds of the present invention. The EC50 values (i.e., effective concentrations of the compound capable of inhibiting 50% of the total TNFα) illustrate the ability of the present compounds to inhibit LPS-stimulated TNFα release from human peripheral blood lymphocytes.

For data set [3], the system named is serum TNFα. Description: Combined mouse endotoxin-stimulated TNFα release assay (serum TNFα). The class given is in vivo. The following applies: female Balb/c mice, i.p., LPS model. Here is the method:
(§1) The purpose of this study was to determine the efficacy of PDE4 inhibitors in vivo in an LPS mouse model together with a determination with respect to central nervous system (CNS) side-effects manifested by a decrease in spontaneous mobility.
(§2) The test animals were female Balb/c mice, having an average weight of about 20 g. The PDE4 inhibitors, formulated in 30% Cremophor® EL, were administered via intraperitoneal (i.p.) injections at doses of 0.1, 1.0, 10.0, and 100 mg/kg. Individual dose volumes (about 150 μL) were adjusted based on the body weights measured. One hour later, 5 mg/kg LPS in a final volume of 200 μL was injected via the tail vein to each animal. Ninety minutes following the LPS treatment, the animals were bled and serum samples were collected before being stored at −70° C. until assayed.
For efficacy determination, the serum samples were diluted two-fold and TNFα levels were determined using the CYTOSCREEN® Immunoassay Kit (Biosource International). The data were averaged between triplicate sample subjects for each of the tested compounds.

Data set [4] is described as follows: Combined mouse locomotor activity assay (sedative / CNS side-effect scoring). The following applies: female Balb/c mice, i.p., 10 mg/kg. Also on record: key: Vehicle control animals were rated a single “+”; animals that were effectively immobilized and stretched out on the bottom of the cage with little detectable movement were rated as “++++.”. The class given is in vivo. Here is the method: as §1, §2
For side-effect profiling, a subjective visual scoring system was utilized at 5 min and 20 min after administration of PDE4 inhibitors. […] In this instance, the subjects could be monitored continuously over pre-set intervals.
Movement of the X-Y plane, or rearing up on the hind legs, was quantified by counting the number of “light-beam” crosses per unit of time. […] The quantitative scoring correlated well with the subjective measurements described above.

Data set [5] has as its target T1, human recombinant PDE4 (Homo sapiens, UniProt Q07343).
T1 construct: made in house; host or cells: Saccharomyces cerevisiae BJ2-54
Description: Inhibition of human recombinant PDE4 (charcoal separation PDE assay). Format: biochemical. The following applies: read-out: PDE4 IC50. On the procedure: The compounds of structural formula (I) were tested for an ability to inhibit PDE4. […] The IC50 value for compounds of structural formula (I) were determined using human recombinant PDE4.
Phosphodiesterase activity of the preparations was determined as follows. […] In this assay, PDE activity converts [32P]cAMP or [32P]cGMP to the corresponding [32P]5′-AMP or [32P]5′-GMP in proportion to the amount of PDE activity present. The [32P]5′-AMP or [32P]5′-GMP then was quantitatively converted to free [32P]phosphate and unlabeled adenosine or guanosine by the action of snake venom 5′-nucleotidase. […] The assay was performed at 30° C. in a 100 μL reaction mixture containing (final concentrations) 40 mM Tris HCl (pH 8.0), 1 μM ZnSO4, 5 mM MgCl2, and 0.1 mg/mL bovine serum albumin (BSA). Alternatively, in assays assessing PDE1-specific activity, incubation mixtures further incorporated the use of 0.1 mM CaCl2 and 10 μg/mL calmodulin. PDE enzyme was present in quantities that yield <30% total hydrolysis of substrate (linear assay conditions). The assay was initiated by addition of substrate (1 mM [32P]cAMP or cGMP), and the mixture was incubated for 12 minutes. Seventy-five (75) μg of Crotalus atrox venom then was added, and the incubation was continued for 3 minutes (15 minutes total). The reaction was stopped by addition of 200 μL of activated charcoal (25 mg/mL suspension in 0.1 M NaH2PO4, pH 4). After centrifugation (750×g for 3 minutes) to sediment the charcoal, a sample of the supernatant was taken for radioactivity determination in a scintillation counter and the PDE activity was calculated.

T1 sequence (Q07343 whole entry): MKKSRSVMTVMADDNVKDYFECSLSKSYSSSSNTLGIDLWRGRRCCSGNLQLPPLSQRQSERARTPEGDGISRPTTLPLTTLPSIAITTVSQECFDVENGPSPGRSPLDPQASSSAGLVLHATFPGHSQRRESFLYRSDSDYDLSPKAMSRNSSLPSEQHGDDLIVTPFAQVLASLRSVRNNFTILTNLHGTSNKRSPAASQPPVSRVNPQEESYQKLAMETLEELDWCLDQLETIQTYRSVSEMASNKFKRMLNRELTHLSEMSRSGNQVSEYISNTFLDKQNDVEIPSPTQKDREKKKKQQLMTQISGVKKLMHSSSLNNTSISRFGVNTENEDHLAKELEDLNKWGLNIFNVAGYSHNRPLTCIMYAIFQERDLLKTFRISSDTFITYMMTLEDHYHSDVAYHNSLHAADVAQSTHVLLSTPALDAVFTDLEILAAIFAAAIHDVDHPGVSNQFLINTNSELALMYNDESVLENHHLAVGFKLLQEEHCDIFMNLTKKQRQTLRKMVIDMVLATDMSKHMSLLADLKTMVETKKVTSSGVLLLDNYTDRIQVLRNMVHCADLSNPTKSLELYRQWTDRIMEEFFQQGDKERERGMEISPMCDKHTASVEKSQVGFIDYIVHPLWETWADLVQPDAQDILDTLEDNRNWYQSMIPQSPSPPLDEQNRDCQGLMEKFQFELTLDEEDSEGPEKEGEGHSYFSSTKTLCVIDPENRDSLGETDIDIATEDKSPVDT

As a reminder, the IC50 is the point on the concentration scale where inhibition reaches its midpoint. For the molecule `COC(=O)N1CC(c2ccc(OC)c(OC3CCCC3)c2)C(C)(C(C)=O)C1` (stereo not shown), in data set [1], the IC50 is ~0.002 µM.

For `COc1ccc(C2CNC(=O)C2)cc1OC1CCCC1` (stereo not shown) [Rolipram, reference compound], the “LPS-induced TNFα secretion from human lymphocytes” value in data set [2] (preliminary experiments) is “inhibit LPS-induced TNFα secretion from human lymphocytes in a dose-dependent fashion”. Also, the IC50 in data set [1] is ~0.2 µM.

Take `COC(=O)N1C[C@@H](c2ccc(OC)c(OC3CCCC3)c2)[C@](C)(C(C)=O)C1` (relative stereo) [Comparative Example, trans-3-(3-cyclopentoxy-4-methoxyphenyl)-1-methoxycarbonyl-4-methyi-4-(methylcarbonyi)pyrrolidine]: the figures for the “% TNFQ Inhibition” value in data set [3] (1 mg/kg), in data set [3] (10 mg/kg) and in data set [3] (100 mg/kg) were 43%, 100% and 100%, respectively. In addition, in data set [4], the “Sedative Effect” value is on record as “+”.

On to `CCOC(=O)c1c(C)nn(-c2ncccc2[N+](=O)[O-])c1C` [Example 10, 3,5-dimethyl-1-(3-nitropyridin-2-yl)-1H-pyrazole-4-carboxylic acid ethyl ester], for which the IC50 in data set [5] (structure table) and in data set [5] (table with PBL/TNFα) was 0.2 µM each time. For the same molecule, in data set [2] (Lymphocyte, LPS-stimulated TNFα release from human PBL, read-out: PBL/TNFα EC50), the EC50 is 2 µM.
